Assay results reported in US7968518B2, “Use of modified cyclosporins for the treatment of HCV disorders” (Novartis AG, priority 2003, dated 2011).

How the values were obtained:
[1] = test system: HCV subgenomic replicon in MH-14 cells; assay: Immunoblot analysis of HCV NS5A and NS5B proteins in MH-14 HCV replicon cells; assay type: cell-based, Hepatitis C virus (HCV); details: 7 days
Procedure: (§1) Cell culture: Huh-7 and MH-14 cells, HCV replicon cells, are cultured in Dulbecco's modified Eagle's medium (DMEM) with 10% fetal bovine serum (FBS). PH5CH8 cells are cultured in a 1:1 mixture of DMEM and F12 medium supplemented with 100 ng/ml of epidermal growth factor, 10 μu/ml of insulin, 0.36 μg/ml of hydrocortisone, 5 μg/ml of transferrin, 5 μg/ml of linoleic acid, 20 ng/ml of selenium, 4 μg/ml of glucagon, 10 ng/ml of prolactin, 10 μg/ml of gentamicin, 200 μg/ml of kanamycin, and 2% FBS.
Immunoblot analysis: Immunoblot analysis is performed as described by K. Watashi et al., Virology 2001, 286, 391-402. The primary antibodies used in this experiment are anti-NS5A, anti-NS5B, and anti-β-actin (Sigma) antibodies.
The effect of various cyclosporins of the invention on the replication of the HCV genome using MH-14 cells, in which the HCV subgenomic replicon as shown in FIG. 1A is autonomously replicated.

[2] = test system: HCV in PH5CH8 cells (non-neoplastic hepatocyte cell line); assay: In vitro HCV infection experiment in PH5CH8 cells, real time RT-PCR; assay type: cell-based, Hepatitis C virus (HCV); details: PH5CH8 cells treated with HCV-positive plasma, continuous treatment; untreated cells about 10-fold increase
Procedure: as §1
(§2) The forward and reverse primers used in this experiment are 5′-[…]-3′ and 5′-[…]-3′, respectively. The fluorogenic probe is 5′-[…]-3′. As an internal control, ribosomal RNA is also quantified using TaqMan Ribosomal RNA Control Reagents (Applied Biosystems).

[3] = test system: HCV subgenomic replicon in MH-14 cells; assay: Northern blot analysis of replicon RNA in MH-14 cells; assay type: cell-based, Hepatitis C virus (HCV); details: 1 μg/ml, 7 days
Procedure: as §1
Northern Blot Analysis: Nothern blot analysis is performed as described by H. Kishine et al., Biochem. Biophys. Res. Commun., 2002, 47, 119-125. The probe complementary to the NS5B sequence used in this experiment is described by H. Kishine, supra.
(§3) Replicon RNA is analyzed in MH-14 cells treated with or without a cyclosporin of the invention or IFNα for 7 days by northern blot analysis.

[4] = test system: HCV subgenomic replicon in MH-14 cells; details: 7th day of treatment
Procedure: as §1, §2, §3

Substance | amount of HCV NS5A and NS5B proteins by immunoblot analysis ([1]; 100 U/ml, positive control) | increase of HCV RNA genome titer, 5th day vs 1st day post-inoculation [2] | amount of HCV NS5A and NS5B proteins by immunoblot analysis ([1]; 1 μg/ml) | amount of replicon RNA by northern blot [3] | level of HCV RNA relative to the original [4]
IFNα | undetectable | significant increase of the HCV RNA genome titer at these time points was not observed |  |  | 
[MeIle]^4-Ciclosporin |  | significant increase of the HCV RNA genome titer at these time points was not observed | undetectable | undetectable | about 1/400
